Data on one molecule can be found in US12410155B2, “Salt form and crystal form of tetrahydrocyclohepta indazole compound” (Zhejiang Yangli Pharmaceutical Technology Co., Ltd., priority 2021, dated 2025).

Experiment [1] has as its target T1, Estrogen receptor α (ERα) (Homo sapiens, UniProt P03372).
T1 construct: host or cells: insect Sf9 cells
T1 sequence (P03372 1-595): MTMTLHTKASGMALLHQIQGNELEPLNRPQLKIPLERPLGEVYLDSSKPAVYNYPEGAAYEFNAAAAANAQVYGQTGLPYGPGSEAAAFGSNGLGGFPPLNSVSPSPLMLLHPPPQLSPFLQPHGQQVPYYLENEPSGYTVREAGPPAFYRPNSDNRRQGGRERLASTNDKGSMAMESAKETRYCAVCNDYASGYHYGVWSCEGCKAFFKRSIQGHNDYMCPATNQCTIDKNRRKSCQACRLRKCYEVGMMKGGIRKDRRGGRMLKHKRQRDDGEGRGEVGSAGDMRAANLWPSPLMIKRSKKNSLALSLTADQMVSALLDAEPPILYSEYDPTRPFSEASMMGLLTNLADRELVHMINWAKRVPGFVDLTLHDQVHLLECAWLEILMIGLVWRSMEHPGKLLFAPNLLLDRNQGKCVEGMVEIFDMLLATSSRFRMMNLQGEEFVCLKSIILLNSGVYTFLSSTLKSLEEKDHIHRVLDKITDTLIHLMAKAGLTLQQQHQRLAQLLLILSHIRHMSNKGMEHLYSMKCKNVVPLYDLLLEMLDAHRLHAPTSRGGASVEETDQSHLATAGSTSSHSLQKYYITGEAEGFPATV
Briefly: ERα binding assay (radioactive ligand binding). The method, then: (1) ERα Binding Assay: Assessment of the Activity of the Compound of Formula (I) Via Radioactive Ligand Binding Assay
The method employed in this study was adopted from scientific literature (Obourn, J. D. et al., Biochemistry, 1993, 32, 6229-6236).
The IC50 values were obtained using MathIQ™ software (ID Business Solutions Ltd., UK) employing a nonlinear, least-squares regression method. The presented inhibition constant (Ki) was calculated using the Cheng and Prusoff equation (Cheng, Y., Prusoff, W. H., Biochem. Pharmacol. 22:3099-3108, 1973) based on the experimentally determined IC50 of the test compound, the concentration of the radioactive ligand used in the assay, and the historical value of the ligand's KD (determined experimentally by Eurofins Panlabs, Inc.). As shown, the Hill coefficient (nH), which defines the slope of the competitive binding curve, was calculated using MathIQ™.

The next experiment has as its target T2, CYP1A2 (Homo sapiens, UniProt P05177).
T2 sequence (P05177 1-516): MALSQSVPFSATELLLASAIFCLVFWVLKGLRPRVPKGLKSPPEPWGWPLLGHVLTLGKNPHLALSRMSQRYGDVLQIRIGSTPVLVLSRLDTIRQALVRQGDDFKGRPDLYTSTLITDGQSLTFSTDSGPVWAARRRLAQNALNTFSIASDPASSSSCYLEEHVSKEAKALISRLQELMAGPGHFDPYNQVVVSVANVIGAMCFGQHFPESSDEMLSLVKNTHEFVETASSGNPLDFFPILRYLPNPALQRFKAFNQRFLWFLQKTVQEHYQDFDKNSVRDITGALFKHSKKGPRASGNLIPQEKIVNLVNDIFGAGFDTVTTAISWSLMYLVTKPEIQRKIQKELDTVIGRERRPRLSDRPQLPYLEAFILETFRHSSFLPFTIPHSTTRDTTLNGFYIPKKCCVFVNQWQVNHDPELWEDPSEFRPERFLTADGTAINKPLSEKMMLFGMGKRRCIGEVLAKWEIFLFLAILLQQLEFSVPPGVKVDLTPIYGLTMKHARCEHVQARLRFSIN
Briefly: Inhibition of cytochrome P450 isozymes in human liver microsomes, CYP1A2. In kind it is in vitro ADME. The following applies: phenacetin substrate. The method, then: (1) Study on the Inhibition of Cytochrome P450 Isozymes
The probe substrate, test compound, human liver microsomes, and cofactors were incubated together. The concentration of the metabolic product of the probe substrate was detected using LC-MS/MS to calculate the IC50 values. In the vehicle control samples, the test compound was replaced with an equal volume of vehicle, and the enzyme activity of the vehicle control samples was set as 100%. […]
Upon reaching the respective reaction times for the incubation systems of the various isoenzymes, 200 μL of termination solution containing the appropriate internal standard was added to the reaction plate to terminate the reaction. […] The metabolites of the probe substrates were then analyzed using LC-MS/MS. […]
The activity of various CYP isoenzymes was reflected by the production rate of metabolites from each probe substrate. […] The residual activity percentage of each isoenzyme was determined by comparing the metabolite production rate of the probe substrate in the presence of different concentrations of the test compound or positive inhibitor to that of the vehicle control samples, then multiplying by 100%. […]
A general note: Microsomes from liver hold many membrane-bound enzymes, among them those of drug oxidation.

Each structure is given as a SMILES string.

In the case of `FCCCN1CC[C@H](Nc2cnc(C3=C(CC(F)(F)F)CCCc4c3ccc3[nH]nc(F)c43)cn2)C1` [Compound of formula (I)], the “nH (Hill coefficient)” value in experiment [1] was found to be 1.22. In addition, the IC50 in experiment [1] (0.5 nM [3H] estradiol) is 0.36 nM; at CYP1A2, 97200 nM. Moreover, the Ki in experiment [1] (Cheng and Prusoff equation) came out at 0.1 nM. In addition, the inhibition at 12.8 pM in experiment [1] (concentration 12.8 pM, read-out: Inhibition rate (%)) was -4%. Besides, the inhibition at 64 pM in experiment [1] (concentration 0.064 nM, read-out: Inhibition rate (%)) was 9%. Also, the inhibition at 0.00032 µM in experiment [1] (concentration 0.32 nM, read-out: Inhibition rate (%)) came out at 48%. Moreover, the inhibition at 0.0016 µM in experiment [1] (concentration 1.6 nM, read-out: Inhibition rate (%)) amounted to 84%. In addition, in experiment [1] (concentration 8 nM, read-out: Inhibition rate (%)), the inhibition at 0.008 µM came out at 97%. In addition, the inhibition at 0.04 µM in experiment [1] (concentration 0.04 μM, read-out: Inhibition rate (%)) came out at 98%. Moreover, the inhibition at 0.2 µM in experiment [1] (concentration 0.2 μM, read-out: Inhibition rate (%)) amounted to 97%. Further, the inhibition at 1 µM in experiment [1] (concentration 1 μM, read-out: Inhibition rate (%)) was determined as 97%.

By IC50 is commonly meant the concentration needed to halve the response being measured. What is called Ki is a measure of affinity in units of concentration, obtained from inhibition or displacement. As usually defined, the inhibition is the change of the read-out against control, counted positive when it falls.
